Several values for one entry are separate records, joined by “and”; a condition that tells them apart may be missing. Equal values may be shown once.
What was measured:
[1] = Absorption spectrum analysis of natural pigments (UV/Vis); type: physicochemical; details: 100 μM β-carotene, 60 μM anthocyanins, 40 μM chlorophyll a
Method: In order to analyze the absorbance spectra of three natural pigments (i.e., β-carotene, delphinidin chloride (anthocyanin), and chlorophyll a (Sigma-Aldrich)), the absorbance analysis was performed using a UV/Vis NANO spectrophotometer (Nabi).
In the drawing, “Experimental result” corresponds to the actually-measured absorption spectrum, and “Calculated result” represents the result of added-up values of the absorption spectrum of single natural pigments.
The results of the absorption spectrum analysis over time by mixing 100 µM B-carotene, 60 μM anthocyanin, and 40 μM chlorophyll a in various combinations are shown in FIG. 2E to 2H.

[2] = tested on: mitochondrial electron transport chain protein complexes; assay: ATP production after treatment with inhibitors of electron transport chain protein complexes; type: biochemical, human; details: 2 μM inhibitor, 1 hour; C@mt; light 640-680 nm, 5 mW, 80 minutes
Method: It is generally known that ATP is produced through protein complexes involved in the electron transport process during the oxidative phosphorylation process of mitochondria. Accordingly, an analysis was performed using the ATP Assay Kit (Abcam) to evaluate the amount of ATP production when treating with inhibitors for each protein complex.
A total of 50 μL of mitochondria including each combination of natural pigments (C@mt, BC@mt, AC@mt, or BAC@mt) and 2 μM of inhibitors (Rotenone, Malonate, Antimycin A or Cyanide) for each protein complex were added to the E-tube and incubated at room temperature for 1 hour. Then, the supernatant was removed using a centrifuge (12,000 g, 15 minutes) and resuspended in 50 μL of PBS. 50 μL of mitochondria including a combination of natural pigments treated with inhibitors were added to each 96-well black plate, and irradiated with light having a wavelength of 640-680 nm at an intensity of 5 mW for 80 minutes. […]
Then, the amount of ATP production was measured by measuring the fluorescence intensity (Ex/Em=535/587 nm) using a microplate reader. The amount of ATP production was calculated by subtracting the fluorescence value measured upon irradiation with light for 0 minutes from the fluorescence value measured upon irradiation with light for 80 minutes, and the results are shown in FIGS. 8A and 8B.

SMILES | wavelength of high absorbance (absorption spectrum) [1] | ATP production after inhibitor treatment [2]
Oc1cc(O)c2cc(O)c(-c3cc(O)c(O)c(O)c3)[o+]c2c1 [anthocyanins, delphinidin chloride] | 555 nm | 
C=Cc1c(C)c2cc3nc(c4c5[n-]c(cc6nc(cc1[n-]2)C(C)=C6CC)c(C)c5C(=O)[C@@H]4C(=O)OC)[C@@H](CCC(=O)OC/C=C(\C)CCC[C@H](C)CCC[C@H](C)CCCC(C)C)[C@@H]3C.[Mg+2] [chlorophyll a] | 415 nm and 662 nm | 
O=C(O)CC(=O)O [malonate, Malonate] |  | rapid decrease
CC1=C(/C=C/C(C)=C/C=C/C(C)=C/C=C/C=C(C)/C=C/C=C(C)/C=C/C2=C(C)CCCC2(C)C)C(C)(C)CCC1 [β-carotene] | 475 nm | 
